Experimental findings from patent US20240148701A1, “WOULD HEALING METHODS” (The University of Sydney, priority 2021, published 2024) are described below.

Experiment [1] relates to human adult dermal microvascular endothelial cells (MVEC). Briefly: Tubule formation in human adult dermal microvascular endothelial cells. The conditions noted are these: CL 316,243 100 ng/ml. Format: cell-based. As for the experimental part: Human umbilical vein endothelial cells (HUVECs; Lonza C2519AS, pooled source, Australia) were grown using standard cell culture conditions in endothelial cell growth medium (EGM Plus®, containing 2% fetal bovine serum, Lonza, Australia). All cells were regularly confirmed to be mycoplasma negative. Two different pooled source cell lines were used in experiments and all were used within passages 2-4. Human adult dermal microvascular endothelial cells were also obtained from Lonza (CC-2543, Lonza Australia) and cultured as above but using endothelial growth medium 2-MV bulletkit. Endothelial colony forming cells (ECFCs) were derived from the peripheral blood of participants in the BioHEART study. This registered study (ACTRN12618001322224) complies with the Declaration of Helsinki and the study protocol and design has been approved by the Northern Sydney Local Health District Human Research Ethics Committee (HREC/17/HAWKE/343). […]
Once they were ˜70% confluent, cells were re-suspended in diluted EGM Plus® (1:3) and plated on reduced-growth factor extracellular matrix (15 mg/ml, Cultrex, Trevigen, USA) at a density of 1.5×10^4 cells/cm^2. […] Cells were incubated in an EVOS FL Auto Imaging system for 16 hours and tubule formation recorded every hour. Optimal tube formation occurred at the 8-hour timepoint; tubule number at this point was quantified manually using NIH Image J software. […]

In experiment [2] the test system is C57BL6/J mice. Briefly: Hind limb ischemia in type 1 diabetes model, laser Doppler perfusion. The class given is in vivo, mouse. How it is done: Male C57BL6/J mice 8-10 weeks of age were obtained from Australian BioResources (Moss Vale, NSW) with 12 hour light/dark cycles and free access to water and mouse chow (Specialty Feeds, Australia). Mice were housed in groups of 2-5 in standard cages within a Physical Containment Level 2 laboratory. For in vivo angiogenesis 16 mice underwent the femoral vascular ligation model. Mice were anaesthetized with 1.5-2% isoflurane vaporized in oxygen and constant body temperature was maintained. All mice received pre-operative and 24-hour post-operative analgesia (carprofen, 5 mg/kg s.c). A small incision (˜15 mm) was made in the hind limb skin directly over the femoral vasculature. A portion of the femoral artery and vein, distal to the origin of the profunda femoris artery and proximal to the saphenous artery, were isolated and two ligations were performed using 6-0 silk sutures. The femoral artery and vein were then excised between the ligation sites 27. […] Hind limb blood flow was assessed prior to ligation (baseline) and immediately after undergoing hind limb ischemia, with subsequent imaging at day 3, 7, 10, 14, 21 and 28 post hind limb ischemia. […] The rate of reperfusion in the hind limb was calculated as a ratio of blood flow in the ischemic versus non-ischemic contralateral limb. […]

The test system of experiment [3] is nitrotyrosine. In words: Immunoblot of nitrotyrosine in hind limb tissue. Format: in vivo, mouse. The conditions noted are these: ischemic hind limbs of type 1 diabetic mice. How it is done:
(§1) Gastrocnemius samples were stored at −80° C. and then mechanically homogenized in ice-cold lysis buffer containing 150 mmol/L NaCl, 200 mmol/L Tris-HCl (pH 8.0), 1% Triton X-100, 0.5% deoxycholic acid, 0.1% SDS, N-ethylmaleimide (25 mM) and protease inhibitors (cOmplete™ EDTA-free, Roche Diagnostics). 30 μg of protein lysate was denatured and run under reducing conditions on SDS-PAGE (Bolt™ pre-cast gels and reagents, Thermofisher Scientific, Australia) and transferred onto Immobilon polyvinylidene fluoride membrane (Merck Millipore, Australia). Membranes were incubated in primary antibodies directed at determining protein expression of the following: Nox isoforms (anti-Nox 2, 1:5000; Abcam, Australia; anti-Nox-4, 1:5000; Abcam, Australia); reactive nitrogen species (anti-nitrotyrosine, 1:1000; Abcam, Australia); and both expression and phosphorylation of eNOS (anti Phospho eNOS serine 1177, 1:1000, Cell Signaling Technology, USA; anti-eNOS 1:1000, BD Biosciences, USA) and Akt (anti Phospho Akt 1:1000, Akt 1:1000, Cell Signaling Technology, USA). Specific secondary antibodies recognizing rabbit or mouse primary antibodies were used (IRDye®, Licor; 1:20,000, USA). Membranes were detected using an Odyssey imaging platform (Licor, USA).
A general note: In western blotting, separated proteins are transferred to a membrane and probed.

For experiment [4], the system named is eNOS. In words: Immunoblot of eNOS expression and serine 1177 phosphorylation in ischemic hind limb. Format: in vivo, mouse. The following applies: ischemic hindlimb, type 1 diabetes model. As for the experimental part:
as §1

Bounds are passed on as bounds.

With `C[C@H](Cc1ccc2c(c1)OC(C(=O)[O-])(C(=O)[O-])O2)NC[C@H](O)c1cccc(Cl)c1.[Na+].[Na+]` [CL 316,243], in experiment [1], the “angiogenesis (tubule formation) in endothelial cells from adults, dermal source” value is on record as “stimulated angiogenesis”. Moreover, the perfusion ratio entry in experiment [2] (citrate-buffer treated (non-diabetic) mice, also 14-28 days post-ischemia) is “not different from vehicle controls”. Besides, the “greater ischemic-non-ischemic ratio (reperfusion)” value in experiment [2] (type 1 diabetes mice, from 14 days onwards, 1 mg/kg/day s.c., vs vehicle) was around 20. Moreover, the “decrease of nitrotyrosine protein levels” value in experiment [3] is listed as above 70%. For the same compound, in experiment [4], the eNOS expression entry is recorded as “unaltered” and the “phosphorylation of eNOS at serine 1177” value is recorded as “did not appear to be affected”.
